# Laboratory results: patent publication US20040209914A1, “Aromatic sulfone hydroxamic acids and their use as protease inhibitors” (priority 2000, published 2004)
# pIC50: −log10 of the molar value.
# Columns and labels:
# Test in all cases: biochemical
# Recombinant human MMP-2 = molecular target: T1, Recombinant human MMP-2 (Homo sapiens, UniProt P08253); conditions: fluorogenic MCA-peptide substrate, pH 7.5, room temperature; read-out: MMP-2 IC50
# T1 construct: made in house
# T1 sequence (P08253 110-660): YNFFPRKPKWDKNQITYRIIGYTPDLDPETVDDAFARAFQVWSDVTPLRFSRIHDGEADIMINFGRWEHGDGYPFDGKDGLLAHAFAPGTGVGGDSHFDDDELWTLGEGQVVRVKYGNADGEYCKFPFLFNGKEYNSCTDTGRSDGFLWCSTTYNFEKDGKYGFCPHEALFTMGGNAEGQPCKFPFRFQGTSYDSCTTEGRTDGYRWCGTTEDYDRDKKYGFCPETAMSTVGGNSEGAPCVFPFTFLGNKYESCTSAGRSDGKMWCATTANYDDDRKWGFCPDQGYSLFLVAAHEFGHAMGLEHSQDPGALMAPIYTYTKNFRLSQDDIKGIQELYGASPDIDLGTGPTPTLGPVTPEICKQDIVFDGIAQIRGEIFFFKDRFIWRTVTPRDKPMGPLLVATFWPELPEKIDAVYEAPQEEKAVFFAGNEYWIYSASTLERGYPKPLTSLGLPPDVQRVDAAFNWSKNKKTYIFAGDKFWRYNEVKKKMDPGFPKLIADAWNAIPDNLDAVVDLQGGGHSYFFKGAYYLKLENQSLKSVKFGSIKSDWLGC
# Method: (§1) Recombinant human MMP-1, MMP-2, MMP-9, MMP-13, and were used in this assay. These enzymes were prepared in the Assignee's es following usual laboratory procedures. Specifics for preparing and e enzymes can be found in the scientific literature describing these See, e.g., Enzyme Nomenclature (Academic Press, San Diego, Calif., d the citations therein).
# The MMP-2 was obtained from MMP-2 expressing transfected cells provided by Dr. Gregory Goldberg of Washington University.
# (§2) The enzyme substrate was a methoxycoumarin-containing polypeptide having the following sequence:
# (§3) MCA-ProLeuGlyLeuDpaAlaArgNH2
# (§4) Here, “MCA” is methoxycoumarin and “Dpa” is 3-(2,4-dinitrophenyl)-L-2,3-diaminopropionyl alanine.
# (§5) These solutions were then compared to a control (which contained equal amount of DMSO/buffer solution, but no hydroxamate compound) using Microfluor™ White Plates (Dynatech, Chantilly, Va.). Specifically, The MMPs were activated with APMA or trypsin. […] The control likewise was incubated at room temperature in separate plates with the MMP and 4 uM of the MMP substrate. […] Inhibition was measured as a reduction in fluorescent intensity as a function of inhibitor concentration using a Perkin Elmer (Norwalk, Conn.) L550 plate reader. The IC50's were then calculated from these measurements.
# Recombinant human MMP-13 = molecular target: T2, Recombinant human MMP-13 (Homo sapiens, UniProt P45452); conditions: fluorogenic MCA-peptide substrate, pH 7.5, room temperature; read-out: MMP-13 IC50
# T2 construct: made in house; host or cells: baculovirus / insect cells
# Method: as §1
# The expressed proenzyme was first purified over a heparin agarose column, and then over a chelating zinc chloride column. The proenzyme was then activated by APMA for use in the assay.
# as §2, §3, §4, §5
# Recombinant human MMP-1 = molecular target: T3, Recombinant human MMP-1 (Homo sapiens, UniProt P03956); conditions: fluorogenic MCA-peptide substrate, pH 7.5, room temperature
# T3 construct: made in house; host or cells: transfected HT-1080 cells
# T3 sequence (P03956 100-469): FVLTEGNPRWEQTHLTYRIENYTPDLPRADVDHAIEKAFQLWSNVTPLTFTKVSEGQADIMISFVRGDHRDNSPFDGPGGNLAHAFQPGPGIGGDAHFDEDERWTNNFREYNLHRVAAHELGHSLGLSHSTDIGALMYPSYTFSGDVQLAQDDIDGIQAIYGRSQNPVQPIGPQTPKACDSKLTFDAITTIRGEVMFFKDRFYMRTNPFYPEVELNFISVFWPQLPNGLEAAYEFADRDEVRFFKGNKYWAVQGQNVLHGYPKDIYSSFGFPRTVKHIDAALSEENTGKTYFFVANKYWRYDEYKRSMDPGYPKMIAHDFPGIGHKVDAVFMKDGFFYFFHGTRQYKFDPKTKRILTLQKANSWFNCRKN
# Method: as §1
# The MMP-1 was obtained from MMP-1 expressing transfected HT-1080 cells provided by Dr. Harold Welgus of Washington University in St. Louis, Mo. The MMP-1 was activated using 4-aminophenylmercuric acetate (APMA), and then purified over a hydroxamic acid column.
# as §2, §3, §4, §5
SMILES,pIC50 (Recombinant human MMP-2),pIC50 (Recombinant human MMP-13),pIC50 (Recombinant human MMP-1)
COCCN1CCC(C(=O)NO)(S(=O)(=O)c2ccc(N3CCC(C(=O)c4ccc(Cl)cc4)CC3)cc2)CC1 [Example 119],6.70,9.00,< 5.00
CCCc1ccc(C(=O)C2CCN(c3ccc(S(=O)(=O)C4(C(=O)NO)CCN(CCOC)CC4)cc3)CC2)cc1 [Example 120],6.90,9.07,< 5.00
CCCCc1ccc(C(=O)C2CCN(c3ccc(S(=O)(=O)C4(C(=O)NO)CCN(CCOC)CC4)cc3)CC2)s1 [Example 121],7.23,10.00,< 5.00
O=C(c1ccc(Cl)cc1)C1CCN(c2ccc(S(=O)(=O)C3(C(=O)NO)CCN(CC4CC4)CC3)cc2)CC1 [Example 123],7.33,10.00,< 5.00
C#CCN1CCC(C(=O)NO)(S(=O)(=O)c2ccc(N3CCC(C(=O)c4ccc(OC)cc4)CC3)cc2)CC1 [Example 151],6.89,8.89,< 5.00
C#CCN1CCC(C(=O)NO)(S(=O)(=O)c2ccc(N3CCC(C(=O)c4ccc(C)cc4)CC3)cc2)CC1 [Example 152],7.25,9.22,< 5.00
C#CCN1CCC(C(=O)NO)(S(=O)(=O)c2ccc(N3CCC(C(=O)c4ccc(Cl)cc4)CC3)cc2)CC1 [Example 153],7.51,9.70,< 5.00
C#CCN1CCC(C(=O)NO)(S(=O)(=O)c2ccc(N3CCC(C(=O)c4cccc(C)c4)CC3)cc2)CC1 [Example 154],6.75,8.62,< 5.00
C#CCN1CCC(C(=O)NO)(S(=O)(=O)c2ccc(N3CCC(C(=O)c4cccc(OC)c4)CC3)cc2)CC1 [Example 155],7.36,8.85,< 5.00
COCCN1CCC(C(=O)NO)(S(=O)(=O)c2ccc(N3CCC(C(=O)c4ccc(OC)cc4)CC3)cc2)CC1 [Example 156],5.87,9.15,< 5.00
C=CCN1CCC(C(=O)NO)(S(=O)(=O)c2ccc(N3CCC(C(=O)c4ccc(C)c(C)c4)CC3)cc2)CC1 [Example 158],6.66,8.62,< 5.00
C=CCN1CCC(C(=O)NO)(S(=O)(=O)c2ccc(N3CCC(C(=O)c4ccc5ccccc5c4)CC3)cc2)CC1 [Example 160],6.70,9.40,< 5.00
C#CCN1CCC(C(=O)NO)(S(=O)(=O)c2ccc(N3CCC(C(=O)c4ccc(OC(C)C)c(C)c4)CC3)cc2)CC1 [Example 162],6.31,8.57,< 5.00
Cc1ccc(C(=O)C2CCN(c3ccc(S(=O)(=O)C4(C(=O)NO)CCN(S(C)(=O)=O)CC4)cc3)CC2)cc1C [Example 164],6.03,8.27,< 5.00
COCCN1CCC(C(=O)NO)(S(=O)(=O)c2ccc(N3CCC(c4ccc(C)cc4)CC3)cc2)CC1 [Example 269],–,8.85,< 5.00
O=C(NO)C1(S(=O)(=O)c2ccc(N3CCC(c4ccc(Cl)cc4)CC3)cc2)CCN(CC2CC2)CC1 [Example 274],–,8.68,< 5.00
O=C(c1ccc(CN2CCCC2)cc1)C1CCN(c2ccc(S(=O)(=O)C3(C(=O)NO)CCOCC3)cc2)CC1 [Example 385],7.46,8.49,–
O=C(Cc1ccccc1)C1CCN(c2ccc(S(=O)(=O)C3(C(=O)NO)CCOCC3)cc2)CC1 [Example 386],5.72,7.82,–
O=C(Cc1cccs1)C1CCN(c2ccc(S(=O)(=O)C3(C(=O)NO)CCOCC3)cc2)CC1 [Example 387],6.46,8.35,–
